Measurements as given in patent US5051403A (priority 1989, dated 1991).
Values joined by “and” are separate entries in the source; they are usually repeats but may differ in a detail not shown here. Identical values can stand only once. Bridge positions count the residues as written; N and C are the ends. Square brackets hold non-standard residues; d marks the D form. Ends that are not written are not given here. Peptide text beside a SMILES is read from it. * marks the point of attachment. Hyp = O=C(O)[C@@H]1C[C@@H](O)CN1; Acm = CC(=O)NC*

These compounds were tested against OCT binding sites, elasmobranch electric organ synaptosomes (Diplobatis ommata, UniProt P56698) (assay: biochemical). Details: pKi.
Sequence of OCT binding sites, elasmobranch electric organ synaptosomes (P56698 whole entry, looked up): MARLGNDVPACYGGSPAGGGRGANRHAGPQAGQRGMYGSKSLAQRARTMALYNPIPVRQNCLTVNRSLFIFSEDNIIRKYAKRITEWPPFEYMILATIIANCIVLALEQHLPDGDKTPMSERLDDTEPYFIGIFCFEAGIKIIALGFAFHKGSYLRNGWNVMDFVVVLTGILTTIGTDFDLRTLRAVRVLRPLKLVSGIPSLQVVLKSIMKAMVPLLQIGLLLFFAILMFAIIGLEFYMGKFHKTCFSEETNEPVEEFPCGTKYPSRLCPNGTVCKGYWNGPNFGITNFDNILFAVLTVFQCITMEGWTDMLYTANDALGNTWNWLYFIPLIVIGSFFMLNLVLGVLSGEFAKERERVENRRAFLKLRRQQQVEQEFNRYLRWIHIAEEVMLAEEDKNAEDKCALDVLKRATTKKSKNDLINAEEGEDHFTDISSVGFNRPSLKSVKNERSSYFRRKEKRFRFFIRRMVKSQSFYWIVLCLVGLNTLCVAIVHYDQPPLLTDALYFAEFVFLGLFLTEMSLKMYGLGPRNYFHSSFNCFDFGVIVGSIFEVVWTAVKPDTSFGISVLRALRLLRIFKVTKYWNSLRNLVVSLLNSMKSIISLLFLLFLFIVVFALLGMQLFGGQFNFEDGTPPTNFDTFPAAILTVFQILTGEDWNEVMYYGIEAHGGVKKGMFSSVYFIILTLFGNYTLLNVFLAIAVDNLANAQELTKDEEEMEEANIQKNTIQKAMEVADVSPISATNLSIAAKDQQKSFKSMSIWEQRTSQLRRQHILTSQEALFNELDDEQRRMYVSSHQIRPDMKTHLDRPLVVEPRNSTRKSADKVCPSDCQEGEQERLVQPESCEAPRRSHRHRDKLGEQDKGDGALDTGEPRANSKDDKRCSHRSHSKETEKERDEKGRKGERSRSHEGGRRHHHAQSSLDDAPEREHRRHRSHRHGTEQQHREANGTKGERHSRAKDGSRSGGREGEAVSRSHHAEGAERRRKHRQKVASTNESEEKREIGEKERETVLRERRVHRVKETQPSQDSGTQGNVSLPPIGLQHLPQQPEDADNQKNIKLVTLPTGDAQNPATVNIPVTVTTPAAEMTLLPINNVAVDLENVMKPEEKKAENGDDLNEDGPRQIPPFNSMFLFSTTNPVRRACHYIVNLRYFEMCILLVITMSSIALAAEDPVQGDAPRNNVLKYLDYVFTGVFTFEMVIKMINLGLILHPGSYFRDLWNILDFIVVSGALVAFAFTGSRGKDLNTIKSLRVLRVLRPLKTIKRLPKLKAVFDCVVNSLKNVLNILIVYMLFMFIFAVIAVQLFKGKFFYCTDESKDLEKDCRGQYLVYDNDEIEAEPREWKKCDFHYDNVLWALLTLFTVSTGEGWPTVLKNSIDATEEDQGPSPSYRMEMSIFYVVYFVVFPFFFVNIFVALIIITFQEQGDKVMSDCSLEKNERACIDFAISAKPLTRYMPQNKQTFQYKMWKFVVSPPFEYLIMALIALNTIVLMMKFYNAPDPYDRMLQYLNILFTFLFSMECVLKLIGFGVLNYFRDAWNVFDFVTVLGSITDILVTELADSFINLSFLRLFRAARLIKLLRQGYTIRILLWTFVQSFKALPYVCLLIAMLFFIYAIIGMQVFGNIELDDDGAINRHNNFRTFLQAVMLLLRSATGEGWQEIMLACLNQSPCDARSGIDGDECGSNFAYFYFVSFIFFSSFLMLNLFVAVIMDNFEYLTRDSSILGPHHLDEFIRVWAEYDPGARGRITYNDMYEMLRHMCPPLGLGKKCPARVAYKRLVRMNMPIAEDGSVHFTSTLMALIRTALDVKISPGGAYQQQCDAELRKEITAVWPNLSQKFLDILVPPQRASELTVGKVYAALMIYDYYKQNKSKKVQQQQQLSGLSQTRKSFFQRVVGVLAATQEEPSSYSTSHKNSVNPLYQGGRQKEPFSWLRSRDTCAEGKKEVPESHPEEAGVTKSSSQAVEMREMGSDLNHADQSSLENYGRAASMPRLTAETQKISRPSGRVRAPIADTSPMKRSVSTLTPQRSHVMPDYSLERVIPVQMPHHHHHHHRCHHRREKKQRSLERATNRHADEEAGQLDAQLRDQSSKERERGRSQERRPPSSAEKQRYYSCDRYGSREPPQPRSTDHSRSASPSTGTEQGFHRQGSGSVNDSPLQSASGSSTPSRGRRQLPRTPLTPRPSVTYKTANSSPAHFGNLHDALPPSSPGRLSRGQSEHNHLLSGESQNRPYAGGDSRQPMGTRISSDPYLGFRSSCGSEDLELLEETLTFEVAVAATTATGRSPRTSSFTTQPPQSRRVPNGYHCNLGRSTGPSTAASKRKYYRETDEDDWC
Parameters: species or system Ommata dyscopyge (marine electric ray)

Row | Compound | Ki
1 | C[C@@H]1NC(=O)[C@H](C)NC(=O)[C@H](CO)NC(=O)[C@H](CO)NC(=O)CNC(=O)[C@@H]2C[C@@H](O)CN2C(=O)[C@H](CO)NC(=O)[C@H](CCCCN)NC(=O)[C@@H](N)CSSC[C@@H](C(=O)N[C@@H](Cc2ccc(O)cc2)C(N)=O)NC(=O)[C@H](CCCNC(=N)N)NC(=O)[C@H](CCCCN)NC(=O)[C@H]([C@@H](C)O)NC(=O)[C@H](Cc2ccc(O)cc2)NC(=O)[C@@H]2C[C@@H](O)CN2C(=O)[C@H](CC(N)=O)NC1=O [GVIA 180] (H-CKS[Hyp]GSSAAN[Hyp]YTKRCY-NH2; disulfide 1-16) | 123 µM
2 | C[C@@H]1NC(=O)CNC(=O)[C@H](CCCCN)NC(=O)CNC(=O)[C@H](CCCCN)NC(=O)[C@@H](N)CSSC[C@@H](C(=O)N[C@@H](CO)C(=O)N[C@@H](CCCNC(=N)N)C(N)=O)NC(=O)[C@H](CCCCN)NC1=O [MVIIA 170] | < 1 µM and 0.282 µM
3 | CSCC[C@@H]1NC(=O)[C@H](CC(C)C)NC(=O)[C@H](CCCNC(=N)N)NC(=O)[C@H](CO)NC(=O)[C@H](CSCNC(C)=O)NC(=O)[C@H](CCCCN)NC(=O)[C@H](C)NC(=O)CNC(=O)[C@H](CCCCN)NC(=O)CNC(=O)[C@H](CCCCN)NC(=O)[C@@H](N)CSSC[C@@H](C(N)=O)NC(=O)[C@H](CSCNC(C)=O)NC(=O)[C@H](CC(=O)O)NC(=O)[C@H](Cc2ccc(O)cc2)NC1=O [MVIIA 163] | 219 µM
4 | C[C@@H]1NC(=O)[C@H](C)NC(=O)[C@H](CCCCN)NC(=O)[C@H](CO)NC(=O)CNC(=O)[C@H](CCCCN)NC(=O)[C@H](CO)NC(=O)[C@H](CCCCN)NC(=O)[C@@H](N)CSSC[C@@H](C(N)=O)NC(=O)[C@H](CCCCN)NC(=O)CNC(=O)[C@H](CO)NC(=O)[C@H](CCCNC(=N)N)NC1=O [MVIIA 176] (H-CKSKGSKAARSGKC-NH2; disulfide 1-14) | 1.82 µM
5 | CSCC[C@@H]1NC(=O)[C@H](CC(C)C)NC(=O)[C@H](CCCNC(=N)N)NC(=O)[C@H](CO)NC(=O)[C@H](C)NC(=O)[C@H](CCCCN)NC(=O)[C@H](C)NC(=O)CNC(=O)[C@H](CCCCN)NC(=O)CNC(=O)[C@H](CCCCN)NC(=O)[C@@H](N)CSSC[C@@H](C(N)=O)NC(=O)[C@H](C)NC(=O)[C@H](CC(=O)O)NC(=O)[C@H](Cc2ccc(O)cc2)NC1=O [MVIIA 171] (H-CKGKGAKASRLMYDAC-NH2; disulfide 1-16) | 4.68 µM
6 | CSCC[C@@H]1NC(=O)[C@H](CC(C)C)NC(=O)[C@H](CCCNC(=N)N)NC(=O)[C@H](CO)NC(=O)[C@@H]2CSSC[C@H](NC(=O)[C@H](CC(=O)O)NC(=O)[C@H](Cc3ccc(O)cc3)NC1=O)C(=O)N[C@H](C(N)=O)CSSC[C@H](N)C(=O)N[C@@H](CCCCN)C(=O)NCC(=O)N[C@@H](CCCCN)C(=O)NCC(=O)N[C@@H](C)C(=O)N[C@@H](CCCCN)C(=O)N2 [MVIIA 172] | 20.9 µM
7 | C[C@@H]1NC(=O)[C@H](CO)NC(=O)[C@H](CO)NC(=O)CNC(=O)[C@@H]2C[C@@H](O)CN2C(=O)[C@H](CO)NC(=O)[C@H](CCCCN)NC(=O)[C@@H](N)CSSC[C@@H](C(N)=O)NC(=O)[C@H](C)NC(=O)[C@H](CC(N)=O)NC(=O)[C@H](Cc2ccc(O)cc2)NC(=O)[C@H](CO)NC(=O)[C@H]([C@@H](C)O)NC(=O)[C@@H]2C[C@@H](O)CN2C(=O)[C@H](CO)NC1=O [GVIA 177] (H-CKS[Hyp]GSSAS[Hyp]TSYNAC-NH2; disulfide 1-16) | > 1000 µM
8 | AKGKGAKASR-NH2 [MVIIA 174] | < 1 µM and 0.525 µM
9 | C[C@@H]1NC(=O)CNC(=O)[C@H](CCCCN)NC(=O)CNC(=O)[C@H](CCCCN)NC(=O)[C@@H](N)CSSC[C@@H](C(N)=O)NC(=O)[C@H](CCCCN)NC(=O)CNC(=O)[C@H](CO)NC(=O)[C@H](CCCNC(=N)N)NC(=O)[C@H](C)NC(=O)[C@H](C)NC(=O)[C@H](CCCCN)NC1=O [MVIIA 175] (H-CKGKGAKAARSGKC-NH2; disulfide 1-14) | 3.63 µM
10 | CSCC[C@@H]1NC(=O)[C@H](CC(C)C)NC(=O)[C@H](CCCNC(=N)N)NC(=O)[C@H](CO)NC(=O)[C@@H](N)CSSC[C@@H](C(N)=O)NC(=O)[C@H](CO)NC(=O)CNC(=O)[C@H]([C@@H](C)O)NC(=O)[C@H](CSCNC(C)=O)NC(=O)[C@H](CSCNC(C)=O)NC(=O)[C@H](CC(=O)O)NC(=O)[C@H](Cc2ccc(O)cc2)NC1=O [MVIIA 161] (H-CSRLMYDC(Acm)C(Acm)TGSC-NH2; disulfide 1-13) | > 1000 µM
11 | CC(=O)NCSC[C@@H]1NC(=O)[C@H](CCCCN)NC(=O)[C@H](C)NC(=O)CNC(=O)[C@H](CCCCN)NC(=O)CNC(=O)[C@H](CCCCN)NC(=O)[C@@H](N)CSSC[C@@H](C(N)=O)NC(=O)[C@H](CCCCN)NC(=O)CNC(=O)[C@H](CO)NC(=O)[C@H](CCCNC(=N)N)NC(=O)[C@H](CSCNC(C)=O)NC1=O [MVIIA 162] (H-CKGKGAKC(Acm)C(Acm)RSGKC-NH2; disulfide 1-14) | < 1 µM and 0.17 µM
12 | CC(=O)NCSC[C@@H]1NC(=O)[C@H](CO)NC(=O)CNC(=O)[C@H]([C@@H](C)O)NC(=O)[C@H](CSCNC(C)=O)NC(=O)[C@@H](N)CSSC[C@@H](C(N)=O)NC(=O)[C@H](CCCCN)NC(=O)CNC(=O)[C@H](CO)NC(=O)[C@H](CCCNC(=N)N)NC1=O [MVIIA 160] | 120 µM
